Patent US4500526A, “Cephalosporin derivatives” (Bristol-Myers Company, priority 1983, dated 1985)
≈ marks a conversion by molar mass, not a printed value. Where two headings read alike, the source gives them in different places.

Tests used:
[1] = test system: M. morganii (1 strain), Ent. cloacae (2 strains) and Ser. marcescens (2 strains); assay: MIC, two-fold serial agar dilution, group (G-)-II; format: cell-based; conditions: (G-)-II, 5 strains, Mueller-Hinton agar; read-out: Geometric Mean of MIC
Outline: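 Two-fold serial agar dilution in Mueller-Hinton agar; test-compound sample weights adjusted for purity of each compound before MIC determination.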

[2] = test system: N. gonorrhoeae (5); assay: In vitro activity against fastidious bacteria, two-fold serial agar dilution; format: cell-based; conditions: Neisseria gonorrhoeae, read-out: Geometric Mean of MIC
Protocol: (§1) The in vitro activity of some of the preferred compounds against 30 strains of fastidious bacteria was determined by the two-fold serial agar dilution method in Gonococcus agar (GC agar), and the results are shown in Table 3.

[3] = test system: S. pneumoniae (5); assay: as above; format: cell-based; conditions: Streptococcus pneumoniae; GC agar; read-out: Geometric Mean of MIC
Protocol: as §1

[4] = test system: N. meningitidis (5); assay: as above; format: cell-based; conditions: Neisseria meningitidis, read-out: Geometric Mean of MIC
Protocol: as §1

[5] = test system: S. pyogenes (5 strains); assay: as above; format: cell-based; conditions: Streptococcus pyogenes; GC agar; read-out: Geometric Mean of MIC
Protocol: as §1

[6] = test system: H. influenzae (3) (ampicillin resistant); assay: as above; format: cell-based; conditions: Haemophilus influenzae, read-out: Geometric Mean of MIC
Protocol: as §1

[7] = test system: Penicillinsensitive S. aureus (5 strains); assay: MIC, two-fold serial agar dilution, group (G+)-Ia; format: cell-based; conditions: Staphylococcus aureus; (G+)-Ia, 5 strains, Mueller-Hinton agar; read-out: Geometric Mean of MIC
Outline: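 Two-fold serial agar dilution in Mueller-Hinton agar. Compound weights corrected for purity. Group comprises 5 penicillin-sensitive S. aureus strains.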

[8] = test system: Cephalothinsensitive E. coli (2 strains), Kl. pneumoniae (1 strain) and Pr. mirabilis (2 strains); assay: MIC, two-fold serial agar dilution, group (G-)-Ia; format: cell-based; conditions: 5 strains, Mueller-Hinton agar, read-out: Geometric Mean of MIC
Outline: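 Mueller-Hinton agar, two-fold serial dilution; test compound weights corrected for purity so MICs reflect actual compound content.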

[9] = test system: S. aureus BX-1633; assay: Median protective dose in infected mice; format: in vivo; conditions: Staphylococcus aureus, BX1633, im, immediately after intraperitoneal challenge, read-out: PD50
Protocol: (§2) The median protective dose (PD50) of some of the preferred compounds against various microorganisms was determined in mice by intramuscular administration of the test compound immediately after an intraperitoneal bacterial challenge.

[10] = test system: P. aeruginosa A9843; assay: Median protective dose in infected mice; format: in vivo; conditions: Pseudomonas aeruginosa, im, immediately after intraperitoneal challenge, read-out: PD50
Protocol: as §2

[11] = test system: P. aeruginosa A21509; assay: Median protective dose in infected mice; format: in vivo; conditions: Pseudomonas aeruginosa, im, immediately after intraperitoneal challenge, read-out: PD50
Protocol: as §2

[12] = test system: S. aureus Smith; assay: Median protective dose in infected mice; format: in vivo; conditions: Staphylococcus aureus, im, immediately after intraperitoneal challenge, read-out: PD50
Protocol: as §2

[13] = test system: E. coli Juhl; assay: Median protective dose in infected mice; format: in vivo; conditions: Escherichia coli, im, immediately after intraperitoneal challenge, read-out: PD50
Protocol: as §2

[14] = test system: Penicillinresistant S. aureus (5 strains); assay: MIC, two-fold serial agar dilution, group (G+)-Ib; format: cell-based; conditions: Staphylococcus aureus; (G+)-Ib, 5 strains, Mueller-Hinton agar; read-out: Geometric Mean of MIC
Outline: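 Two-fold serial agar dilution in Mueller-Hinton agar against penicillin-resistant S. aureus (5 strains). Test compound weights adjusted for purity.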

[15] = test system: Cephalothinresistant E. coli (3 strains) and Kl. pneumoniae (3 strains); assay: MIC, two-fold serial agar dilution, group (G-)-Ib; format: cell-based; conditions: Escherichia coli, read-out: Geometric Mean of MIC
Outline: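 MICs by two-fold serial agar dilution in Mueller-Hinton agar against cephalothin-resistant E. coli and Klebsiella pneumoniae strains. Compound weights were corrected for purity.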

[16] = Mouse blood levels after single intramuscular injection; format: in vivo, mice; conditions: in vivo, im, 20 mg/kg
Outline: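 Mice received a single intramuscular dose of 20 mg/kg in 0.1M phosphate buffer, pH 7. Orbital sinus blood was sampled over time and bioassayed on Nutrient Agar (pH 6.6) with E. coli Ess-22-31; t1/2 and AUC were derived from the blood levels.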

[17] = test system: Ps. aeruginosa (6 strains); assay: MIC, two-fold serial agar dilution, group (G-)-III; format: cell-based; conditions: Pseudomonas aeruginosa; (G-)-III, 6 strains, Mueller-Hinton agar; read-out: Geometric Mean of MIC
Protocol: In the primary evaluation of the compounds of this invention, the Minimum Inhibitory Concentrations (MIC's) of the compounds were determined by the two-fold serial agar dilution method in Mueller-Hinton agar against 32 strains of test organisms in six groups. The sample weights of the test compounds were adjusted according to the purity of each compound, so as to give a more accurate measure of the MIC's.
(G-)III: Ps. aeruginosa (6 strains)

Structure (SMILES)	MIC [1] [µg/mL]	MIC [3] [µg/mL]	MIC [5] [µg/mL]	MIC [7] [µg/mL]	MIC [8] [µg/mL]	ED50 [9] [mg/kg]	ED50 [10] [mg/kg]	ED50 [11] [mg/kg]	ED50 [12] [mg/kg]	ED50 [13] [mg/kg]	MIC [14] [µg/mL]	MIC [15] [µg/mL]	AUC [16] [ng·h/mL]	concentration at 10 min [16] [ng/mL]	concentration at 20 min [16] [ng/mL]	concentration at 0.5 h [16] [ng/mL]	concentration at 40 min [16] [ng/mL]	concentration at 50 min [16] [ng/mL]	concentration at 1 h [16] [ng/mL]	concentration at 1.5 h [16] [ng/mL]	also measured
CO/N=C(\C(=O)NC1C(=O)N2C(C(=O)[O-])=C(C[n+]3ccc4scnc4c3)CS[C@H]12)c1csc(N)n1 (stereo partly shown) [Ia, 7-[(Z)-2-(2-Aminothiazol-4-yl)-2-methoxyiminoacetamido]-3-{(5-thiazolo[4,5-c]pyridinio)methyl}-3-cephem-4-carboxylate]	0.16 (≈ 0.301 µM)	0.0125 (≈ 0.0235 µM)	0.0125 (≈ 0.0235 µM)	0.42 (≈ 0.79 µM)	0.02 (≈ 0.0376 µM)	0.75	7.2	6.25	0.45	0.012	0.96 (≈ 1.81 µM)	0.16 (≈ 0.301 µM)	15000	20000	15000	11000	8600	6900	6500	3100	MIC ([2]; GC agar): 0.0125 µg/mL (≈ 0.0235 µM); MIC ([4]; GC agar): 0.0125 µg/mL (≈ 0.0235 µM); MIC ([6]; GC agar, ampicillin resistant, 3 strains): 0.0125 µg/mL (≈ 0.0235 µM); concentration at 2 h [16]: 2100 ng/mL; half-life [16]: 35 min; MIC [17]: 2.6 µg/mL (≈ 4.89 µM)
CC(C)(O/N=C(\C(=O)NC1C(=O)N2C(C(=O)[O-])=C(C[n+]3ccc4scnc4c3)CS[C@H]12)c1csc(N)n1)C(=O)O (stereo partly shown) [Id, 7-[(Z)-2-(2-Aminothiazol-4-yl)-2-(2-carboxyprop-2-oxyimino)-acetamido]-3-{(5-thiazolo[4,5-c]pyridinio)methyl}-3-cephem-4-carboxylate]	0.88 (≈ 1.46 µM)	0.2 (≈ 0.331 µM)	0.2 (≈ 0.331 µM)	4.4 (≈ 7.29 µM)	0.04 (≈ 0.0663 µM)	21	4.3	5	7.2	0.082	8.8 (≈ 14.6 µM)	0.71 (≈ 1.18 µM)	9500	16000	14000	11000	6100	3900	2500	720	MIC [2]: 0.1 µg/mL (≈ 0.166 µM); MIC [4]: 0.1 µg/mL (≈ 0.166 µM); MIC [6]: 0.1 µg/mL (≈ 0.166 µM); concentration at 2 h [16]: < 200 ng/mL; half-life [16]: 16 min; MIC [17]: 1.4 µg/mL (≈ 2.32 µM)
